Results: US6218597A, “Transgenic model and treatment for heart disease” (University Technology Corporation, priority 1998, dated 2001)

Biological target: βAR (β-adrenergic receptor), cardiac sarcolemmal membranes of wild-type FVB/N mice
Conditions: read-out: Kd for ICYP

Kd: ~20 pM
Structure (SMILES): CC(C)(C)NCC(O)COc1cccc2[nH]c(C#N)c([125I])c12 (stereo not shown) [ICYP, ^125 I-iodocyanopindolol]
